Results published in US12264163B2, “Compounds and methods for treating fibrotic pathologies” (Mayo Foundation for Medical Education and Research, priority 2019, dated 2025).

How the values were obtained:
[1] = system: Collagen I and Fibronectin; test: Immuno-ECM: TGFβ-induced collagen I and fibronectin accumulation; type: cell-based, human; conditions: IPF patient-derived fibroblasts, TGFβ 48 hours then DHX 24 hours
Method: IPF patient-derived fibroblasts grown at confluence were pre-stimulated with 2 ng/mL TGFβ for 48 hours and then treated with DHX (10 μM)+2 ng/mL TGFβ for an additional 24 hours prior to fixation. Cell derived matrix is measured using antibodies for Collagen I and Fibronectin. […] Representative traction maps are shown from cells plated onto 6.4 kPa matrices treated with the indicated concentration of DHX. RMS tractions were determined in two independent experiments; box and whisker plots show min to max, quartile, and mean from one representative experiment (****p<0.0001, *p<0.05 vs. 0.1% DMSO vehicle control).
Immuno-ECM Adapting from previously published methods, IPF patient-derived fibroblasts were plated to confluence in clear-bottom 96-well plates. After cells attached, the medium was swapped for EMEM containing 0.10% FBS±2 ng/mL TGF-β. After 48 hours the indicated concentration of DHX or DMSO control was added to each well and incubated for 24 hours. WST-1 viability reagent was added to each well (Sigma-Aldrich) and measured on a Flexstation 3 (Molecular Devices) plate reader. […] Plates were imaged via a Li-Cor OdysseyXL system with quantification performed via densitometry. Data are expressed as IR intensity relative to WST-1 signal absorbance in order to account for any potential compound toxicity.

[2] = system: bleomycin-induced pulmonary fibrosis; test: Bleomycin mouse model of pulmonary fibrosis; type: in vivo; conditions: bleomycin mice
Method: Bleomycin Mouse Study: In the initial in vivo siRNA study (FIGS. 22 and 23A-23C), adult male age-matched C57BL/6N mice at 6-8 weeks of age were purchased from the National Cancer Institute (NCI)-Frederick Mouse Repository (Frederick, MD, USA). All experiments were performed in accordance with National Institute of Health guidelines and protocols approved by the Massachusetts General Hospital Subcommittee on Research Animal Care, and maintained all mice in a specific pathogen-free (SPF) environment certified by the American Association for Accreditation of Laboratory Animal Care (AAALAC). 6-8 weeks old mice were anesthetized with ketamine and xylazine before exposure of the trachea. Lung fibrosis was induced by intratracheal injection of bleomycin (50 μl at 1.2 U/kg) or phosphate buffered saline (PBS; as control) on day 0. After 14 days Small interfering RNA (siRNA) duplexes targeting mouse Yap (L-046247-01-0005) or Taz (L-058248-01-0005) mRNA (Dharmacon) or nontargeting control siRNA were administered in vivo by intratracheal instillation at a single dose of 25 μg (each siRNA) per mouse. On day 21 Mice were sacrificed and lungs harvested for collagen determination and biochemical analyses. To obtain BAL samples for total protein concentration determination, lungs were lavaged with six 0.5-mL aliquots of PBS. BAL samples were centrifuged at 3,000 g for 20 min at 4° C. and transferred the supernatants to siliconized low-binding Eppendorf tubes (PGC Scientifics) for subsequent analysis. Total protein concentration of the BAL fluid was determined by BCA Protein Assay Kit (Pierce). In the dihydrexidine treatment studies (FIG. 17-21), 8 week old female C57/BL6 mice were purchased from Charles River Laboratories. Mouse lung fibrosis was induced with bleomycin (BLEO; Fresenius Kabi) delivered intratracheally (3 U/kg) to the lungs using MicroSprayer® Aerosolizer (Penn-Century). The Sham mice received sterile 0.9% saline instead using identical methods. Mice were weighed every 24 hrs, and both groups were then randomized at day 10 into DHX and Control treatment groups, matching for the degree of weight change. DHX (5 mg/kg) was administered everyday intranasally (i.n.) dissolved in surfactant (infasurf) which has previously shown to aid in spreading to pulmonary aveoli for 14 days. The control groups of mice received the equivalent vehicle dose of surfactant. Following the final DHX treatment, mice were sacrificed and the right lungs were inflated with 4% paraformaldehyde (PFA) and further incubated in 4% PFA for 24 hours prior processing for paraffin embedding. The left lobe of the lung was snap frozen in liquid nitrogen for RNA isolation and hydroxyproline assay. Experimental procedures were approved by the Mayo Clinic Institutional Animal Care and Use Committee and the animals were handled in accordance with their guidelines.
Histological Scoring: Five μm thick sections were cut from Paraffin embedded lung tissues, and the sections were stained either with hematoxylin and eosin (H&E) or with Masson's Trichrome stain kit (Abcam). All H&E-stained slides and trichrome-stained slides were reviewed in a blinded fashion by a thoracic pathologist. The severity of interstitial and peribronchiolar lung immature and mature fibrosis was estimated on a numerical scale according to Ashcroft et al. For scoring purposes, all H&E stained slides were systematically scanned at 100× magnification and successive 100× fields were scored. Scoring was based on the following scale: 0 (no fibrosis), 1 (minimal interstitial and/or peribronchiolar thickening due to fibrosis), 3 (moderate thickening without obvious architectural distortion), 5 (increased fibrosis with formation of fibrous bands and/or small masses), 7 (severe architectural distortion with large areas of fibrosis and areas of honeycomb changes), and 8 (total fibrous obliteration of the field). The predominant score for each field was recorded. The mean of all scores was calculated for each case. […]

[3] = system: D1 receptor; conditions: cited from earlier work

In the case of Oc1cc2c(cc1O)[C@H]1c3ccccc3CN[C@@H]1CC2 (racemic) [Dihydrexidine], the “TGFβ-stimulated accumulation of collagen I and fibronectin” value [1] is reported as “dose-dependently reversed”, the “lung remodeling by histology (Ashcroft, blinded pathologist)” value ([2]; DHX 5 mg/kg i.n. Day 10-24) is reported as “nearly completely protected from lung remodeling” and the “lung transcript levels of Acta2, Ctgf, Fn1, Col1a1, Col1a2, Yap and Taz” value ([2]; DHX 5 mg/kg i.n. Day 10-24) is reported as “significantly attenuated”. For the same compound, the “staining for YAP and TAZ in the lungs” value ([2]; DHX 5 mg/kg i.n. Day 10-24) was “attenuated”, the “total collagen in the lungs (hydroxyproline)” value ([2]; DHX 5 mg/kg i.n. Day 10-24) was “nearly identical to sham treated mice” and the weight change ([2]; DHX 5 mg/kg once daily i.n. from Day 10, vs Bleo control) was “lost significantly less weight”. The “expression of YAP/TAZ target genes in flow-sorted lung cells” value ([2]; two doses of DHX on day 10, lungs collected day 11) was “selectively blocks expression of YAP/TAZ target genes in lung fibroblasts” and the “efficacy at elevating cAMP (D1 receptor)” value [3] was “full magnitude cAMP response”.
